Patent US11198713B2, “Agents modulating beta-catenin functions and methods thereof” (FOG PHARMACEUTICALS, INC., priority 2017, dated 2021)

Target: T1, full-length beta-catenin (Axin site) (Homo sapiens, UniProt P35222)
T1 construct: 15 nM full-length beta-catenin, 20 nM FITC labeled peptide in buffer
T1 sequence (P35222 1-781): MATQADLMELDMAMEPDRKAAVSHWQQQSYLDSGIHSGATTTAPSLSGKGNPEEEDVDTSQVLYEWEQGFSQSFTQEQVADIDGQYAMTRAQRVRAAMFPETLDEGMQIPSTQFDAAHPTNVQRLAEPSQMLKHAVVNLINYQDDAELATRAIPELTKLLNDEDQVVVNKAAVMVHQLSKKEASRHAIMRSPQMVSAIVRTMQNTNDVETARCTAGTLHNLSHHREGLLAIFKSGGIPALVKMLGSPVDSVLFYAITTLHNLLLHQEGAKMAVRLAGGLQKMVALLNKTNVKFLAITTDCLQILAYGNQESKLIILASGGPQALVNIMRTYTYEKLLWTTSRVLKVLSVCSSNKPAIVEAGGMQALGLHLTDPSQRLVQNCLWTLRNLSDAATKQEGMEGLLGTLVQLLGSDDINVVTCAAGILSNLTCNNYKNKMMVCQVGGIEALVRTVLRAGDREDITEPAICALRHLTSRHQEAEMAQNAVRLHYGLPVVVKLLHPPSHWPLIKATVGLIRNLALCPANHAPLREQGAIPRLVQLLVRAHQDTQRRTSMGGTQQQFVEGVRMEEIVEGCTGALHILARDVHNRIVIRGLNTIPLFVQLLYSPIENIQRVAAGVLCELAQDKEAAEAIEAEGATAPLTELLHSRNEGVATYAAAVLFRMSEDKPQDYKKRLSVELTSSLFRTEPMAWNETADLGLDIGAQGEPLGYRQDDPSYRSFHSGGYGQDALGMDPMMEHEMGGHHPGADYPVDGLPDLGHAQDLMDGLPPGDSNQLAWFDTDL
Assay: Competition fluorescence polarization assay (Axin site probe)
Format: binding
Settings: competition fluorescence polarization, Table 2; read-out: in vitro FP EC50
Outline: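 Competition FP: 15 nM full-length β-catenin pre-incubated 5 min with 20 nM FITC-labelled stapled Axin-site peptide, then titrated peptide added (3-fold series from 5 μM) for 15 min in the dark. Buffer 50 mM Tris pH 8.0, 250 mM NaCl, 2% glycerol, 0.5 mM EDTA; duplicate reads.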

Row | Structure (SMILES) | EC50
1 | CC[C@H](C)[C@@H]1NC(=O)[C@H](Cc2ccccn2)NC(=O)[C@H](C)NC(=O)[C@H](CC(=O)O)NC(=O)[C@H](CC(C)C)NC(=O)[C@H]([C@@H](C)CC)NC(=O)[C@](C)(NC(=O)[C@H](C)NC(C)=O)CCCCCCC=CCOC(=O)N2CC[C@@](C(=O)N[C@@H](Cc3ccccn3)C(=O)N[C@H](C(=O)N[C@@H](Cc3c[nH]c4ccccc34)C(N)=O)C(C)C)(C2)NC1=O (single isomer, unassigned) [FP0572c Isomer 1, Ac-A-R8-I-L-D-A-2pyr-I-MB-2pyr-V-W-NH2] | > 5 µM
2 | CC[C@H](C)[C@@H]1NC(=O)[C@H](Cc2ccccn2)NC(=O)[C@H](C)NC(=O)[C@H](CC(=O)O)NC(=O)[C@H](CC(C)C)NC(=O)[C@H]([C@@H](C)CC)NC(=O)[C@](C)(NC(=O)[C@H](C)NC(C)=O)CCCCCCC=CCOC(=O)N2CC[C@@](C(=O)N[C@@H](Cc3cccnc3)C(=O)N[C@H](C(=O)N[C@@H](Cc3c[nH]c4ccccc34)C(N)=O)C(C)C)(C2)NC1=O (single isomer, unassigned) [FP0573c Isomer 1, Ac-A-R8-I-L-D-A-2pyr-I-MB-3pyr-V-W-NH2] | > 5 µM
3 | CC[C@H](C)[C@@H]1NC(=O)[C@H](Cc2ccccn2)NC(=O)[C@H](C)NC(=O)[C@H](CC(=O)O)NC(=O)[C@H](CC(C)C)NC(=O)[C@H]([C@@H](C)CC)NC(=O)[C@](C)(NC(=O)[C@H](C)NC(C)=O)CCCCCCC=CCOC(=O)N2CC[C@@](C(=O)N[C@@H](Cc3cccnc3)C(=O)N[C@H](C(=O)N[C@@H](Cc3c[nH]c4ccccc34)C(N)=O)C(C)C)(C2)NC1=O (single isomer, unassigned) [FP0573c Isomer 2, Ac-A-R8-I-L-D-A-2pyr-I-MB-3pyr-V-W-NH2] | > 5 µM

The remaining lines, values ahead:

Row | EC50 | Structure (SMILES)
4 | > 5 µM | CC[C@H](C)[C@@H]1NC(=O)[C@H](Cc2ccccn2)NC(=O)[C@H](C)NC(=O)[C@H](CC(=O)O)NC(=O)[C@H](CC(C)C)NC(=O)[C@H]([C@@H](C)CC)NC(=O)[C@](C)(NC(=O)[C@H](C)NC(C)=O)CCCCCCC=CCOC(=O)N2CC[C@@](C(=O)NC(C)(C)C(=O)N[C@H](C(=O)N[C@@H](Cc3c[nH]c4ccccc34)C(N)=O)C(C)C)(C2)NC1=O (single isomer, unassigned) [FP0570c Isomer 1, Ac-A-R8-I-L-D-A-2pyr-I-MB-Aib-V-W-NH2]
5 | > 5 µM | CC[C@H](C)[C@@H]1NC(=O)[C@H](Cc2ccccn2)NC(=O)[C@H](C)NC(=O)[C@H](CC(=O)O)NC(=O)[C@H](CC(C)C)NC(=O)[C@H]([C@@H](C)CC)NC(=O)[C@](C)(NC(=O)[C@H](C)NC(C)=O)CCCCCCC=CCOC(=O)N2CC[C@@](C(=O)NC(C)(C)C(=O)N[C@H](C(=O)N[C@@H](Cc3c[nH]c4ccccc34)C(N)=O)C(C)C)(C2)NC1=O (single isomer, unassigned) [FP0570c Isomer 2, Ac-A-R8-I-L-D-A-2pyr-I-MB-Aib-V-W-NH2]
6 | > 5 µM | CC[C@H](C)[C@@H]1NC(=O)[C@H](Cc2ccccn2)NC(=O)[C@H](C)NC(=O)[C@H](CC(=O)O)NC(=O)[C@H](CC(C)C)NC(=O)[C@H]([C@@H](C)CC)NC(=O)[C@](C)(NC(=O)[C@H](C)NC(C)=O)CCCCCCC=CCOC(=O)N2CC[C@@](C(=O)N[C@@H](Cc3cccs3)C(=O)N[C@H](C(=O)N[C@@H](Cc3c[nH]c4ccccc34)C(N)=O)C(C)C)(C2)NC1=O (single isomer, unassigned) [FP0571c Isomer 1, Ac-A-R8-I-L-D-A-2pyr-I-MB-thi-V-W-NH2]
7 | > 5 µM | CC[C@H](C)[C@@H]1NC(=O)[C@H](Cc2ccccn2)NC(=O)[C@H](C)NC(=O)[C@H](CC(=O)O)NC(=O)[C@H](CC(C)C)NC(=O)[C@H]([C@@H](C)CC)NC(=O)[C@](C)(NC(=O)[C@H](C)NC(C)=O)CCCCCCC=CCOC(=O)N2CC[C@@](C(=O)N[C@@H](Cc3cccs3)C(=O)N[C@H](C(=O)N[C@@H](Cc3c[nH]c4ccccc34)C(N)=O)C(C)C)(C2)NC1=O (single isomer, unassigned) [FP0571c Isomer 2, Ac-A-R8-I-L-D-A-2pyr-I-MB-thi-V-W-NH2]
